Active and inactive are the calls of the source. Peptide text beside a SMILES is read from it. * marks the point of attachment. Boc = CC(C)(C)OC(=O)*
Assays:
[1] = target: T1, Corticotropin-releasing factor receptor 2/Corticotropin-releasing factor-binding protein (Homo sapiens, UniProt P24387+Q13324); experiment: Dose Response confirmation of uHTS hits for small molecule antagonists of the CRF-binding protein and CRF-R2 receptor complex.; type: functional; settings: read-out: IC50_Mean
T1 sequence (Q13324 whole entry): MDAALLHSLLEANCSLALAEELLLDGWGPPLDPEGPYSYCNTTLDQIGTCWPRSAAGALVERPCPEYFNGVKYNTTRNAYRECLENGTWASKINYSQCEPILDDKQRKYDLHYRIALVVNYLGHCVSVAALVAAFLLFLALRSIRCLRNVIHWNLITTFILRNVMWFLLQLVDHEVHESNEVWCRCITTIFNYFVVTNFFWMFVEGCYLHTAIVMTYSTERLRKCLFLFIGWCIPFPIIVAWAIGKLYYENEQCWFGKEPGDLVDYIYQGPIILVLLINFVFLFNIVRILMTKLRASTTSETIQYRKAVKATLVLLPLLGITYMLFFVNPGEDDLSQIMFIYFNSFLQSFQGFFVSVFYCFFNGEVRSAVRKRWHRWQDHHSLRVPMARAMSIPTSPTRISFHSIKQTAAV
T1 sequence (P24387 whole entry): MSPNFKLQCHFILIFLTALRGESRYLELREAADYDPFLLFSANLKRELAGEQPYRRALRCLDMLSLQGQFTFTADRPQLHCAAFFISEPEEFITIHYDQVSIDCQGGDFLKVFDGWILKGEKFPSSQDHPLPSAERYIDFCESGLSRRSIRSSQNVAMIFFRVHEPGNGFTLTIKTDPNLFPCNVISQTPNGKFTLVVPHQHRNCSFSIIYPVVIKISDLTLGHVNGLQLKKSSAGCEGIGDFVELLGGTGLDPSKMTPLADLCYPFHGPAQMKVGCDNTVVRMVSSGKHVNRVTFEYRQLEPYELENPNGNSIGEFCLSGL

[2] = target: T1, Corticotropin-releasing factor receptor 2/Corticotropin-releasing factor-binding protein; experiment: activators of CRF receptor 2 with binding protein – uHTS hits, confirmation (AID 602473); type: functional; settings: read-out: EC50_Mean
Cytochrome P450 2C19 = Cytochrome P450 2C19 (Homo sapiens, UniProt P33261); experiment: Cytochrome panel assay with activity outcomes. Panel member name: p450-cyp2c19 Compounds with AC50 equal or less than 10 uM are considered active; type: functional; settings: read-out: AC50
Chain of Cytochrome P450 2C19 (P33261 whole entry): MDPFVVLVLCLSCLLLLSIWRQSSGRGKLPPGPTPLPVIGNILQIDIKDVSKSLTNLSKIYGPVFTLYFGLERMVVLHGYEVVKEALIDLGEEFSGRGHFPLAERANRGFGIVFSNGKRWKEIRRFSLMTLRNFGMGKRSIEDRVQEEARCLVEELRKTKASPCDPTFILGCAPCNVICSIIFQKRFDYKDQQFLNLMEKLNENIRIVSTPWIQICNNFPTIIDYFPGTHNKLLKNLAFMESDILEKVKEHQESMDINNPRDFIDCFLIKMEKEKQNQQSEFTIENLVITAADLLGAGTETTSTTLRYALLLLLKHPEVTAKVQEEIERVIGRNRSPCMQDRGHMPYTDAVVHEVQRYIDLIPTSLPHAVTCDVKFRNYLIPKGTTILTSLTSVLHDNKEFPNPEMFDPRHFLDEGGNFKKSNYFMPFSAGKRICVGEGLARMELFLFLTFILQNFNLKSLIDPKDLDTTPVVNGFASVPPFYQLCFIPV

Cytochrome P450 3A4 = Cytochrome P450 3A4 (Homo sapiens, UniProt P08684);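 note: CYP3A4 tested as one member of a cytochrome P450 panel screen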
Chain of Cytochrome P450 3A4 (P08684 whole entry): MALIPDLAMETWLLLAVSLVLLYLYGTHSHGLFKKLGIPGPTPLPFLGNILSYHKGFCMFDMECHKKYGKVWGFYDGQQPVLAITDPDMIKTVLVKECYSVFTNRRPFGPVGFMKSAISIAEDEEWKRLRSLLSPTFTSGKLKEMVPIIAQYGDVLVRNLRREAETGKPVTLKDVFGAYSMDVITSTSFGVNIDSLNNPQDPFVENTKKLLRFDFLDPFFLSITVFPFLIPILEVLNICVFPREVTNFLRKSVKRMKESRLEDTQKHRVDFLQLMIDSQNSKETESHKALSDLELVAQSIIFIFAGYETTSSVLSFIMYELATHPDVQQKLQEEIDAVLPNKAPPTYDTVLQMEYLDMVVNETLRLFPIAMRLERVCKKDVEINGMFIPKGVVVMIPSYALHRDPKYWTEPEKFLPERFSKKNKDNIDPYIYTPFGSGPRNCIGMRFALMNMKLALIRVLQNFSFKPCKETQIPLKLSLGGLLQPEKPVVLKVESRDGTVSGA

Cytochrome P450 2C9 = Cytochrome P450 2C9 (Homo sapiens, UniProt P11712)
Chain of Cytochrome P450 2C9 (P11712 whole entry): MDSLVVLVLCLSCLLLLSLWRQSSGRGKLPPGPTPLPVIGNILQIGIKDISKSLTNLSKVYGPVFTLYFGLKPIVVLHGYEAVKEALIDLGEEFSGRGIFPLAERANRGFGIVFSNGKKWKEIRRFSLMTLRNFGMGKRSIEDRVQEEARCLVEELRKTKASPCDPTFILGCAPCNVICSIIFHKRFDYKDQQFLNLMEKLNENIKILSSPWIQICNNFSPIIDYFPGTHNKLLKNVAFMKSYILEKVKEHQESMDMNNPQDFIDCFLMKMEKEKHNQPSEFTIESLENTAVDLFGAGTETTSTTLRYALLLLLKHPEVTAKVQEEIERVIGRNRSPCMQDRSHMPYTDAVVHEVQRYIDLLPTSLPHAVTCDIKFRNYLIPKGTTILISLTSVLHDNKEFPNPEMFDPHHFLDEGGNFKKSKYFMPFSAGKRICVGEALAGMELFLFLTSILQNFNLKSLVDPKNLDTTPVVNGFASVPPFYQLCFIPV

Cytochrome P450 1A2 = target: T2, Cytochrome P450 1A2 (Homo sapiens, UniProt P05177);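 note: PubChem cytochrome P450 panel assay, CYP1A2 panel member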
T2 sequence (P05177 whole entry): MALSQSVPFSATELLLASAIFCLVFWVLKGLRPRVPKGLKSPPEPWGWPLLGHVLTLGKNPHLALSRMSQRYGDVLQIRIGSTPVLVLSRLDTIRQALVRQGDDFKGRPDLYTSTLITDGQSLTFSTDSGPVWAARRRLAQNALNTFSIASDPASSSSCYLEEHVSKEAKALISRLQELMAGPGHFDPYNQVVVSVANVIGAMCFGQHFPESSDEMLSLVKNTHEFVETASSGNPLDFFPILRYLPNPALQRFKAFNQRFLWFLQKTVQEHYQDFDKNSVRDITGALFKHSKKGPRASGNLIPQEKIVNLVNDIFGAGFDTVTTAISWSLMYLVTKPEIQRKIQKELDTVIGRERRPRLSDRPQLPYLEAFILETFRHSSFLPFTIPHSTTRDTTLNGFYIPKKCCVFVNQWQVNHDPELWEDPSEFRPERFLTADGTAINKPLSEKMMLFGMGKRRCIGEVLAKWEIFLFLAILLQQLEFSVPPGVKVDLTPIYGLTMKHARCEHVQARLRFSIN

[3] = Luminescence Cell-Based Dose Response HTS to Identify Inhibitors of 5'UTR Stem-Loop Driven Prion Protein mRNA Translation in H4 Neuroglioblastoma Cells. [Related pubchem assays: 1827 (Project Summary), 1813 (Primary HTS)]; type: functional
[4] = luciferase reporter signal suppression in cells – H4 neuroglioma cells, luminescence, dose response (AID 1990); type: functional, cell-based
[5] = alpha-synuclein stem-loop luciferase translation blockers – H4 neuroglioma cells, luminescence, confirmation (AID 1988); type: functional, cell-based
[6] = viability of uninfected HEp-2 cells – cell-based, HTS, cytotoxicity control for RSV inhibitor project, dose response (AID 2410); type: functional; settings: human respiratory syncytial virus
[7] = Trypanosoma cruzi growth suppression in host cells – NIH3T3 host cells, beta-gal luminescence, confirmation (AID 2044); type: functional, cell-based;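 note: intracellular parasites grown in NIH/3T3 mouse fibroblasts as host cells; luminescent beta-galactosidase reporter signal from transgenic T. cruzi replicating inside host cells; inhibitors lower the luminescence signal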
[8] = NIH3T3 cell viability loss – ATP luminescence, mouse fibroblasts, counter-screen, dose response (AID 2010); type: functional, cell-based;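 note: cells exposed to compound for about 90 hours before reading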
[9] = target: T3, Rac GTPase-activating protein 1 (Homo sapiens, UniProt Q9H0H5); experiment: blockers of MgcRacGAP-driven Rac1 GTP hydrolysis – biochemical, ADP Hunter fluorescence, primary and confirmatory, confirmation (AID 624330); type: functional
T3 sequence (Q9H0H5 whole entry): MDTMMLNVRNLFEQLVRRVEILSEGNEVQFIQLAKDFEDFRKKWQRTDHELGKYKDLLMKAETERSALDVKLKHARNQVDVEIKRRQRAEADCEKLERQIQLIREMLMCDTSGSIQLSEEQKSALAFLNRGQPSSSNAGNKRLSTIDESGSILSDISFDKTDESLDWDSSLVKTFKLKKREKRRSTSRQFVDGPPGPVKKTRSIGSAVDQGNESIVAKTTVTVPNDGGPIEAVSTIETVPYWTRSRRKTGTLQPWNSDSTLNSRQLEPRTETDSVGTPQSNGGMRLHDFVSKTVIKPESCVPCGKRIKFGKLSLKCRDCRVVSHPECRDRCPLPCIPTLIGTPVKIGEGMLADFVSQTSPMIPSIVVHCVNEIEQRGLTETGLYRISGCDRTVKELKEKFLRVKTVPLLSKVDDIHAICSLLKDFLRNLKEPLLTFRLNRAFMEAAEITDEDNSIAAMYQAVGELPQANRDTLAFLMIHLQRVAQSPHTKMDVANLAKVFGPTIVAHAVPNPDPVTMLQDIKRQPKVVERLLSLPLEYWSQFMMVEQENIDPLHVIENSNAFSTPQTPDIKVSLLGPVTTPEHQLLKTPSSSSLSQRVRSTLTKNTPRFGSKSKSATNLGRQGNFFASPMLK

[10] = Luminescence Cell-Based Dose Response HTS to Identify Activators of Luciferase Translation or Activity in H4 […] Cells. [Related pubchem assays: 1829 (Project Summary), 1814 (Primary HTS)]; type: functional
H4 = experiment: Luminescence Cell-Based Dose Response HTS to Identify Activators of 5'UTR Stem-Loop Driven Prion Protein mRNA Translation in H4 Neuroglioblastoma Cells. [Related pubchem assays: 1829 (Project Summary), 1814 (Primary HTS)]; type: functional; settings: Homo sapiens
[11] = Luminescence Cell-Based Dose Retest to Confirm Inhibitors of Cancer Stem Cells. [Related pubchem assays (depositor defined):AID2717, AID2721]; type: functional; settings: Homo sapiens

O=C(NNC(=O)c1oc2ccccc2c1-n1cccc1)c1ccco1
IC50 [1]: > 47.1 µM (inactive) | EC50 [2]: > 53 µM (inactive)

CC(=O)c1c(N2CCCCC2)nc(=S)n(Cc2ccccc2)c1C
IC50 [1]: > 47.1 µM (inactive) | EC50 [2]: > 53 µM (inactive)

Nc1cc(N)nc(SCC(=O)NNC(=O)c2ccc(Cl)cc2)n1
AC50 (Cytochrome P450 2C19): 39.8 µM (inconclusive) | AC50 (Cytochrome P450 3A4): 14.1 µM (inconclusive) | AC50 (Cytochrome P450 2C9): 28.2 µM (inconclusive) | AC50 (Cytochrome P450 1A2): 15.8 µM (inconclusive)

Cc1ccc(-n2nc3c(=O)n(CCCC(=O)NCc4cccc(Cl)c4)nc(C)c3c2C)cc1
EC50 [3]: 74.3 µM (active) | EC50 [4]: 14.1 µM (active) | EC50 [5]: 61.6 µM (active) | CC50 [6]: 28.4 µM (active)

CCOc1ccc(OCCOCCN2CCc3ccccc3C2)cc1
EC50 [7]: 0.124 µM (active) | EC50 [8]: 21 µM (active) | AC50 (Cytochrome P450 3A4): 25.1 µM (inconclusive) | AC50 (Cytochrome P450 2C9): 11.2 µM (inconclusive) | AC50 (Cytochrome P450 1A2): 20 µM (inconclusive)

COc1ccc(/C=N/NC(=O)c2cc[n+]([O-])cc2)cc1O
IC50 [9]: 38.2 µM (active)

CC(C)C(NC(=O)OC(C)(C)C)C(=O)N1CCCC1C(=O)NC(Cc1ccccc1)C(N)=O (stereo not drawn) (Boc-Val-Pro-Phe-NH2; configuration not given here)
AC50 (Cytochrome P450 2C19): 1.12 µM (inconclusive) | AC50 (Cytochrome P450 3A4): 15.8 µM (inconclusive) | AC50 (Cytochrome P450 2C9): 31.6 µM (inconclusive) | AC50 (Cytochrome P450 1A2): 2 µM (inconclusive)

CCc1c(C)sc(NC(=O)CSc2nc3c(c(C(F)(F)F)n2)CCc2ccccc2-3)c1C#N
EC50 [3]: > 120 µM (not active) | EC50 [4]: > 120 µM (not active) | EC50 [5]: 18.8 µM (active)

O=C(Cc1coc2cc(O)ccc12)N1CCN(S(=O)(=O)c2ccc(Br)cc2)CC1
IC50 [9]: 21.6 µM (active)

CC(C)(C)NC(=O)COC(=O)c1ccccc1Nc1ccc(SC(F)F)cc1
EC50 [10]: 23.9 µM (active) | EC50 (H4): 12.8 µM (active)

Cc1sc2ncnc(N3CCC(C(=O)N(C)CC(=O)Nc4ccc(Cl)c(C(F)(F)F)c4)CC3)c2c1C
EC50 [3]: 13 µM (active) | EC50 [4]: 7.86 µM (active) | EC50 [7]: 2.73 µM (active) | EC50 [5]: 10.3 µM (active) | EC50 [8]: > 60 µM (not active) | AC50 [11]: 3.41 µM (active)

Cc1oc2c(C)c3oc(=O)c(CCC(=O)N4C[C@H]5C[C@@H](C4)c4cccc(=O)n4C5)c(C)c3cc2c1C
EC50 [3]: > 120 µM (not active) | EC50 [4]: 65.1 µM (active) | EC50 [5]: 13.5 µM (active)

C=CCn1c(CNc2ccc(C)cc2)nnc1SCC(=O)N/N=C/c1ccc(O)cc1O
IC50 [9]: 85.1 µM (active) | AC50 [11]: 4.31 µM (active)

CC(C(=O)NC(=O)NC1CCCCC1)N1CCN(c2ccc(O)cc2)CC1 (stereo unspecified)
IC50 [9]: 55.5 µM (active)

COc1ccc(N(CC(=O)NCCc2ccc(OC)c(OC)c2)S(=O)(=O)c2c(C)noc2C)cc1
IC50 [1]: > 47.1 µM (inactive) | EC50 [2]: > 53 µM (inactive)

c1ccc(-c2csc(Nc3nc(N4CCOCC4)nc(N4CCOCC4)n3)n2)cc1
AC50 (Cytochrome P450 2C19): 5.62 µM (inconclusive) | EC50 [7]: 0.104 µM (active) | EC50 [8]: > 30 µM (not active) | AC50 (Cytochrome P450 3A4): 10 µM (inconclusive) | AC50 (Cytochrome P450 2C9): 3.16 µM (inconclusive) | AC50 (Cytochrome P450 1A2): 5.62 µM (inconclusive)

O=C1NC(=O)C(CCc2ccncc2)(Cc2cccc(Cl)c2Cl)C(=O)N1c1ccc(Br)cc1 (stereo unspecified)
EC50 [3]: 18.9 µM (active) | EC50 [4]: 13.2 µM (active) | EC50 [5]: 13.9 µM (active)

Reference: ChEMBL document CHEMBL1201862, “PubChem BioAssay data set” (2004)
